The record followed here is patent US7674810B2, “1,1-dioxo-1H-1Λ6-benzo[d]isothiazol-3-yl)-4-hydroxy-1,5-dihydro-pyrrol-2-one inhibitors of HCV polymerase” (Roche Palo Alto LLC, priority 2006, dated 2010).

For the compound `CC(C)(C)[C@H]1C(O)=C(C2=NS(=O)(=O)c3c(CNS(=O)(=O)c4ccccc4)cccc32)C(=O)N1Cc1ccc(F)cc1`, the melting point (as a rule, the temperature, or range, at which the solid turns liquid) was in the range of 96 to 112 °C. The compound `CC(C)(C)[C@H]1C(O)=C(C2=NS(=O)(=O)c3ccccc32)C(=O)N1Cc1ccc(F)c(C2CC2)c1` showed a melting point of 71 to 85 °C. To `CNC(=O)CN(Cc1cccc2c1S(=O)(=O)N=C2C1=C(O)[C@H](C(C)(C)C)N(Cc2ccc(F)cc2)C1=O)C(C)=O` belongs 150 to 154 °C; to `Cc1cc(CN2C(=O)C(C3=NS(=O)(=O)c4c(CNS(=O)(=O)N5CCC(S(C)(=O)=O)C5)cccc43)=C(O)[C@@H]2C(C)(C)C)ccc1F` (some centres unmarked), 124 to 137 °C. To `CC(C)(C)[C@H]1C(O)=C(C2=NS(=O)(=O)c3ccccc32)C(=O)N1Cc1ccc(=O)[nH]c1` belongs 149 to 190 °C. As for `Cc1cccc(-c2cccc3c2S(=O)(=O)N=C3c2nc(Cc3ccc(F)cc3)c3ccccc3c2O)c1`, the melting point was in the range of 228 to 230 °C. For `O=C1C(C2=NS(=O)(=O)c3ccccc32)=C(O)[C@H](c2ccccc2)N1Cc1ccc(F)cc1` the value was 145 to 155 °C; for `CC(C)(C)[C@H]1C(O)=C(C2=NS(=O)(=O)c3c2cccc3-c2ccc(=O)[nH]c2)C(=O)N1Cc1ccc(F)cc1`, > 275 °C; for `CC(C)(C)[C@H]1C(O)=C(C2=NS(=O)(=O)c3ccccc32)C(=O)N1Cc1ccc(F)c(Br)c1`, 114 to 119 °C. To `COc1cc(CN2C(=O)C(C3=NS(=O)(=O)c4c(CNS(C)(=O)=O)cccc43)=C(O)[C@@H]2C(C)(C)C)ccc1F` belongs 121 to 126 °C; to `CC(C)C[C@@H]1C(O)=C(C2=NS(=O)(=O)c3ccccc32)C(=O)N1Cc1ccc(F)cc1`, 200 °C (dec.); to `CC(C)CC1C(O)=C(C2=NS(=O)(=O)c3ccccc32)C(=O)N1Cc1ccc(F)cc1` (centres unmarked), 200 °C (dec.). Turning to `CC(C)C[C@H]1C(O)=C(C2=NS(=O)(=O)c3ccccc32)C(=O)N1Cc1ccc(F)cc1`, the melting point is 200 °C (dec.). To `CC(C)(C)[C@H]1C(O)=C(C2=NS(=O)(=O)c3c(CNS(C)(=O)=O)cccc32)C(=O)N1CCC1CCCC1` belongs 74 to 86 °C; to `Cc1ccc2c(Cc3ccc(F)cc3)nc(C3=NS(=O)(=O)c4ccccc43)c(O)c2c1`, > 275 °C; to `CCC(=O)N(Cc1cccc2c1S(=O)(=O)N=C2C1=C(O)[C@H](C(C)(C)C)N(Cc2ccc(F)c(C)c2)C1=O)S(C)(=O)=O`, 98 to 99.8 °C. To `O=S1(=O)N=C(c2nc(Cc3ccc(F)cc3)c3ccccc3c2O)c2cccc(N3CCOCC3)c21` belongs 259 to 261 °C; to `CN(c1ccc(F)cc1)c1nc(C2=NS(=O)(=O)c3ccccc32)c(O)c2ccccc12`, 215 to 217 °C; to `COc1ncc(-c2cccc3c2S(=O)(=O)N=C3C2=C(O)[C@H](C(C)(C)C)N(Cc3ccc(F)cc3)C2=O)cn1`, > 250 °C. For `CC(C)(C)[C@H]1C(O)=C(C2=NS(=O)(=O)c3ccccc32)C(=O)N1Cc1ccc(F)c(C#N)c1` the value was 105 to 112 °C; for `CC(C)(C)[C@H]1C(O)=C(C2=NS(=O)(=O)c3c(CNS(=O)(=O)C4CC4)cccc32)C(=O)N1Cc1ccc(F)cc1`, 102 to 105 °C; for `CNC(=O)CNCc1cccc2c1S(=O)(=O)N=C2C1=C(O)[C@H](C(C)(C)C)N(Cc2ccc(F)cc2)C1=O`, 175 to 180 °C. Regarding `O=C1C(C2=NS(=O)(=O)c3ccccc32)=C(O)[C@H](C2CCCCC2)N1Cc1ccc(F)cc1.[Na]`, the melting point fell in the range of 235 to 238 °C. To `O=C1C(C2=NS(=O)(=O)c3ccccc32)=C(O)[C@H](Cc2ccccc2)N1Cc1ccc(F)cc1` belongs 85 to 92 °C; to `O=S1(=O)N=C(c2nc(Cc3ccc(F)cc3)c3ccc(F)cc3c2O)c2ccccc21`, > 275 °C; to `CS(=O)(=O)NCc1cccc2c1S(=O)(=O)N=C2C1=C(O)[C@H](C2CCCCC2)N(Cc2ccc(F)cc2)C1=O`, 130 to 137 °C. To `CC(C)(C)[C@H]1C(O)=C(C2=NS(=O)(=O)c3c(N)cccc32)C(=O)N1Cc1ccc(F)cc1` belongs 155 to 160 °C; to `COc1ccc(-c2cccc3c2S(=O)(=O)N=C3C2=C(O)[C@H](C(C)(C)C)N(Cc3ccc(F)cc3)C2=O)cn1`, 185 to 190 °C; to `CC(C)COc1cccc2c1S(=O)(=O)N=C2C1=C(O)[C@H](C(C)(C)C)N(Cc2ccc(F)cc2)C1=O`, 99 to 106 °C. For `CNC(=O)NCc1cccc2c1S(=O)(=O)N=C2C1=C(O)[C@H](C(C)(C)C)N(Cc2ccc(F)cc2)C1=O`, the melting point was > 250 °C.

On to `CS(=O)(=O)Nc1cccc2c1S(=O)(=O)N=C2c1nc(Cc2ccc(F)cc2)c2ccccc2c1O`, for which the melting point is > 275 °C. For `O=S1(=O)N=C(c2nc(NCC3CC3)c3ccccc3c2O)c2ccccc21` the value was 270 to 272 °C.

In turn, `CCOC(=O)CNc1cccc2c1S(=O)(=O)N=C2C1=C(O)[C@H](C(C)(C)C)N(Cc2ccc(F)cc2)C1=O` returned a melting point of 148 to 152 °C. `CC(C)(C)C1C(O)=C(C2=NS(=O)(=O)c3c(OCC(N)=O)cccc32)C(=O)N1Cc1ccc(F)cc1` (centres unmarked): the melting point is > 250 °C. For `CC(C)(C)[C@H]1C(O)=C(C2=NS(=O)(=O)c3c(CNS(=O)(=O)c4cccs4)cccc32)C(=O)N1Cc1ccc(F)cc1` the value was 175 to 192 °C; for `CC[C@H](C)[C@H]1C(O)=C(C2=NS(=O)(=O)c3ccccc32)C(=O)N1Cc1ccc(F)cc1`, 155 to 160 °C; for `CC(C)(C)[C@H]1C(O)=C(C2=NS(=O)(=O)c3c2cccc3-c2cccc(=O)[nH]2)C(=O)N1Cc1ccc(F)cc1`, > 250 °C.

`CC(=O)Nc1cccc(-c2cccc3c2S(=O)(=O)N=C3C2=C(O)[C@H](C(C)(C)C)N(Cc3ccc(F)cc3)C2=O)c1` came in with a melting point of 255 to 260 °C. To `CN(C)C(=O)COc1cccc2c1S(=O)(=O)N=C2C1=C(O)[C@H](C(C)(C)C)N(Cc2ccc(F)cc2)C1=O` belongs 137 °C; to `O=S1(=O)N=C(c2nc(Cc3ccc(F)cc3)c3ccccc3c2O)c2cccc(-c3ccc(F)cc3)c21`, > 275 °C; to `CC(C)(C)[C@H]1C(O)=C(C2=NS(=O)(=O)c3c2cccc3-c2cccnc2)C(=O)N1Cc1ccc(F)cc1`, > 275 °C. To `CC(=O)NC1CCN(S(=O)(=O)NCc2cccc3c2S(=O)(=O)N=C3C2=C(O)[C@H](C(C)(C)C)N(Cc3ccc(F)c(C)c3)C2=O)C1` (some centres unmarked) belongs 239 to 259 °C; to `O=C1C(C2=NS(=O)(=O)c3ccccc32)=C(O)[C@H](C2CCCCC2)N1Cc1ccccc1`, 104 to 106 °C; to `Cc1ccc(CN2C(=O)C(C3=NS(=O)(=O)c4ccccc43)=C(O)[C@@H]2C(C)(C)C)cc1`, 93 to 107 °C. To `CS(=O)(=O)Nc1cccc(-c2cccc3c2S(=O)(=O)N=C3c2nc(Cc3ccc(F)cc3)c3ccccc3c2O)c1` belongs > 275 °C; to `CNS(=O)(=O)COc1cccc2c1S(=O)(=O)N=C2C1=C(O)[C@H](C(C)(C)C)N(Cc2ccc(F)cc2)C1=O`, 155 to 165 °C; to `CCc1cc(CN2C(=O)C(C3=NS(=O)(=O)c4ccccc43)=C(O)[C@@H]2C(C)(C)C)ccc1F`, 205 to 210 °C. As to `COc1cc(CN2C(=O)C(C3=NS(=O)(=O)c4ccccc43)=C(O)[C@@H]2C(C)(C)C)ccc1F`, the melting point was in the range of 92 to 104 °C. To `CC(C)(C)[C@H]1C(O)=C(C2=NS(=O)(=O)c3c(CNS(=O)(=O)N4CC[C@H](O)C4)cccc32)C(=O)N1Cc1ccc(F)cc1` belongs > 250 °C. For `CC(C)(C)C1C(O)=C(C2=NS(=O)(=O)c3ccccc32)C(=O)N1Cc1ccc(F)cc1` (centres unmarked) the value was > 220 °C; for `Cc1cc(CN2C(=O)C(C3=NS(=O)(=O)c4c(CNS(C)(=O)=O)cccc43)=C(O)C2c2ccc(F)cc2)ccc1F` (centres unmarked), > 250 °C; for `CC(C)(C)[C@H]1C(O)=C(C2=NS(=O)(=O)c3c2cccc3-c2cncnc2)C(=O)N1Cc1ccc(F)cc1`, > 250 °C.

`CC(C)(C)C1C(O)=C(C2=NS(=O)(=O)c3c(Cl)cccc32)C(=O)N1Cc1ccc(F)cc1` (centres unmarked) returned a melting point of 179 to 213 °C. For `CS(=O)(=O)Nc1ccc2c(c1)S(=O)(=O)N=C2c1nc(Cc2ccc(F)cc2)c2ccccc2c1O` the value was > 275 °C. For `COc1cccc2c1S(=O)(=O)N=C2C1=C(O)[C@H](C(C)(C)C)N(Cc2ccc(F)cc2)C1=O` the value was 224 to 235 °C; for `CC(C)(C)[C@H]1C(O)=C(C2=NS(=O)(=O)c3c(CNS(C)(=O)=O)cccc32)C(=O)N1Cc1ccc(F)c(Br)c1`, 138 to 159 °C; for `Cc1cccc2c1S(=O)(=O)N=C2C1=C(O)[C@H](C(C)(C)C)N(Cc2ccc(F)cc2)C1=O`, > 250 °C. To `O=S1(=O)N=C(c2nc(Cc3ccc(F)cc3)c3ccc(F)cc3c2O)c2cccc(Cl)c21` belongs > 275 °C. With `CC(C)(C)[C@H]1C(O)=C(C2=NS(=O)(=O)c3c(CNCC(N)=O)cccc32)C(=O)N1Cc1ccc(F)cc1`, the melting point lay in the range of 118 to 124 °C.

With `CC(C)(C)[C@H]1C(O)=C(C2=NS(=O)(=O)c3c(CN4CCCS4(=O)=O)cccc32)C(=O)N1Cc1ccc(F)cc1`, the melting point lay within 224 to 230 °C.

Regarding `CC(C)(C)[C@H]1C(O)=C(C2=NS(=O)(=O)c3c2cccc3-c2cnc(=O)[nH]c2)C(=O)N1Cc1ccc(F)cc1`, the melting point was > 260 °C. `CC(C)(C)[C@H]1C(O)=C(C2=NS(=O)(=O)c3ccccc32)C(=O)N1Cc1ccccc1` returned a melting point of 170 to 179 °C. For `CN(C)S(=O)(=O)Oc1cccc2c1S(=O)(=O)N=C2C1=C(O)[C@H](C(C)(C)C)N(Cc2ccc(F)cc2)C1=O` the value was 116 to 126 °C; for `CC(C)(C)[C@H]1C(O)=C(C2=NS(=O)(=O)c3c(NCC(N)=O)cccc32)C(=O)N1Cc1ccc(F)cc1.N`, > 250 °C; for `CC(C)(C)[C@H]1C(O)=C(C2=NS(=O)(=O)c3c(CS(N)(=O)=O)cccc32)C(=O)N1Cc1ccc(F)cc1`, 159 to 173 °C.
